≈ marks a conversion by molar mass, not a printed value. Calls of active or inactive are those of the source. No cut-off for these calls is given here.
Assays:
Streptococcus pneumoniae [1] = assay: Antibacterial activity against telethromycin-resistant Streptococcus pneumoniae AB14 expressing erm gene by NCCLS method; type: functional
Streptococcus pneumoniae [2] = assay: Antibacterial activity against telethromycin-resistant Streptococcus pneumoniae B739 expressing erm gene by NCCLS method; type: functional
Streptococcus pneumoniae [3] = assay: Antibacterial activity against telethromycin-resistant Streptococcus pneumoniae 3488 expressing erm gene by NCCLS method; type: functional
Streptococcus pneumoniae [4] = assay: Antibacterial activity against telethromycin-resistant Streptococcus pneumoniae 5051 expressing erm gene by NCCLS method; type: functional
Streptococcus pneumoniae [5] = assay: Antibacterial activity against Streptococcus pneumoniae 49619 by NCCLS method; type: functional
Streptococcus pneumoniae [6] = assay: Antibacterial activity against telethromycin-resistant Streptococcus pneumoniae 757 expressing erm gene by NCCLS method; type: functional
Streptococcus pneumoniae [7] = assay: Antibacterial activity against telethromycin-resistant Streptococcus pneumoniae 3489 expressing erm gene by NCCLS method; type: functional
Streptococcus pneumoniae [8] = assay: Antibacterial activity against Streptococcus pneumoniae 3579 expressing erm gene infected in mouse systemic infection model; type: functional, organism-based
Streptococcus pneumoniae [9] = assay: Antibacterial activity against telethromycin-resistant Streptococcus pneumoniae 162 expressing erm gene by NCCLS method; type: functional
Streptococcus pneumoniae [10] = assay: Antibacterial activity against telethromycin-resistant Streptococcus pneumoniae 5099 expressing erm gene by NCCLS method; type: functional
Streptococcus pneumoniae [11] = assay: Antibacterial activity against Streptococcus pneumoniae 3579 expressing erm gene by NCCLS method; type: functional
Streptococcus pneumoniae [12] = assay: Antibacterial activity against Streptococcus pneumoniae 6303 by NCCLS method; type: functional
Moraxella catarrhalis = assay: Antibacterial activity against Moraxella catarrhalis 8176 by NCCLS method; type: functional
Streptococcus pneumoniae [13] = assay: Antibacterial activity against telethromycin-resistant Streptococcus pneumoniae 3390 expressing erm gene by NCCLS method; type: functional
Streptococcus pneumoniae [14] = assay: Antibacterial activity against telethromycin-resistant Streptococcus pneumoniae 3271 expressing erm gene by NCCLS method; type: functional
Streptococcus pneumoniae [15] = assay: Antibacterial activity against telethromycin-resistant Streptococcus pneumoniae 217 expressing erm gene by NCCLS method; type: functional
Streptococcus pyogenes = assay: Antibacterial activity against Streptococcus pyogenes 19615 by NCCLS method; type: functional
Streptococcus pneumoniae [16] = assay: Antibacterial activity against telethromycin-resistant Streptococcus pneumoniae 2840 expressing erm gene by NCCLS method; type: functional
Streptococcus pneumoniae [17] = assay: Antibacterial activity against Streptococcus pneumoniae 994 expressing mef gene by NCCLS method; type: functional
Haemophilus influenzae = assay: Antibacterial activity against Haemophilus influenzae 38 by NCCLS method; type: functional

Structure (SMILES) | MIC (Streptococcus pneumoniae [1]) | MIC (Streptococcus pneumoniae [2]) | MIC (Streptococcus pneumoniae [3]) | MIC (Streptococcus pneumoniae [4]) | MIC (Streptococcus pneumoniae [5]) | MIC (Streptococcus pneumoniae [6]) | MIC (Streptococcus pneumoniae [7]) | Activity (Streptococcus pneumoniae [8]) | MIC (Streptococcus pneumoniae [9]) | MIC (Streptococcus pneumoniae [10]) | MIC (Streptococcus pneumoniae [11]) | MIC (Streptococcus pneumoniae [12]) | MIC (Moraxella catarrhalis) | MIC (Streptococcus pneumoniae [13]) | MIC (Streptococcus pneumoniae [14]) | MIC (Streptococcus pneumoniae [15]) | MIC (Streptococcus pyogenes) | MIC (Streptococcus pneumoniae [16]) | MIC (Streptococcus pneumoniae [17]) | MIC (Haemophilus influenzae)
C=CCN(C)[C@H]1C[C@@H](C)O[C@@H](O[C@@H]2[C@@H](C)[C@H](OC(=O)Cc3ccccn3)[C@@H](C)C(=O)O[C@H](CC)[C@@]3(C)OC(=O)N(CCCCn4cnc(-c5ccc(N)nc5)c4)[C@@H]3[C@@H](C)C(=O)[C@H](C)C[C@@]2(C)OC)[C@@H]1O | 0.03 µg/mL (≈ 0.0308 µM) | 0.125 µg/mL (≈ 0.128 µM) | 0.03 µg/mL (≈ 0.0308 µM) | 0.03 µg/mL (≈ 0.0308 µM) | 0.06 µg/mL (≈ 0.0616 µM) | 0.06 µg/mL (≈ 0.0616 µM) | 0.25 µg/mL (≈ 0.257 µM) | Active | 0.5 µg/mL (≈ 0.513 µM) | 0.03 µg/mL (≈ 0.0308 µM) | 0.25 µg/mL (≈ 0.257 µM) | 0.06 µg/mL (≈ 0.0616 µM) | 0.125 µg/mL (≈ 0.128 µM) | 0.06 µg/mL (≈ 0.0616 µM) | 0.25 µg/mL (≈ 0.257 µM) | 0.06 µg/mL (≈ 0.0616 µM) | 2 µg/mL (≈ 2.05 µM) | 0.25 µg/mL (≈ 0.257 µM) | 0.125 µg/mL (≈ 0.128 µM) | –
C=CCN(C)[C@H]1C[C@@H](C)O[C@@H](O[C@@H]2[C@@H](C)[C@H](OC(=O)Cc3ccccn3)[C@@H](C)C(=O)O[C@H](CC)[C@@]3(C)OC(=O)N(CCCCn4ccc5cccnc54)[C@@H]3[C@@H](C)C(=O)[C@H](C)C[C@@]2(C)OC)[C@@H]1O | 0.25 µg/mL (≈ 0.268 µM) | 2 µg/mL (≈ 2.15 µM) | 0.5 µg/mL (≈ 0.536 µM) | 0.5 µg/mL (≈ 0.536 µM) | 0.03 µg/mL (≈ 0.0322 µM) | 1 µg/mL (≈ 1.07 µM) | 2 µg/mL (≈ 2.15 µM) | Active | 4 µg/mL (≈ 4.29 µM) | 0.25 µg/mL (≈ 0.268 µM) | 1 µg/mL (≈ 1.07 µM) | 0.03 µg/mL (≈ 0.0322 µM) | 0.25 µg/mL (≈ 0.268 µM) | 0.25 µg/mL (≈ 0.268 µM) | 4 µg/mL (≈ 4.29 µM) | 1 µg/mL (≈ 1.07 µM) | 0.03 µg/mL (≈ 0.0322 µM) | 2 µg/mL (≈ 2.15 µM) | 0.25 µg/mL (≈ 0.268 µM) | < 0.06 µg/mL
C=CCN(C)[C@H]1C[C@@H](C)O[C@@H](O[C@@H]2[C@@H](C)[C@H](OC(=O)Cc3cccnc3)[C@@H](C)C(=O)O[C@H](CC)[C@@]3(C)OC(=O)N(CCCCn4cnc5ncccc54)[C@@H]3[C@@H](C)C(=O)[C@H](C)C[C@@]2(C)OC)[C@@H]1O | 0.125 µg/mL (≈ 0.134 µM) | 0.5 µg/mL (≈ 0.536 µM) | 0.25 µg/mL (≈ 0.268 µM) | 0.25 µg/mL (≈ 0.268 µM) | 0.03 µg/mL (≈ 0.0321 µM) | 0.5 µg/mL (≈ 0.536 µM) | 0.5 µg/mL (≈ 0.536 µM) | Active | 1 µg/mL (≈ 1.07 µM) | 0.125 µg/mL (≈ 0.134 µM) | 1 µg/mL (≈ 1.07 µM) | 0.06 µg/mL (≈ 0.0643 µM) | 0.06 µg/mL (≈ 0.0643 µM) | 0.25 µg/mL (≈ 0.268 µM) | 1 µg/mL (≈ 1.07 µM) | 0.5 µg/mL (≈ 0.536 µM) | 0.06 µg/mL (≈ 0.0643 µM) | 0.5 µg/mL (≈ 0.536 µM) | 0.06 µg/mL (≈ 0.0643 µM) | 0.125 µg/mL (≈ 0.134 µM)
C=CCN(C)[C@H]1C[C@@H](C)O[C@@H](O[C@@H]2[C@@H](C)[C@H](OC(=O)Cc3ccccn3)[C@@H](C)C(=O)O[C@H](CC)[C@@]3(C)OC(=O)N(CCCCn4cnc(-c5ccnc(N)c5)c4)[C@@H]3[C@@H](C)C(=O)[C@H](C)C[C@@]2(C)OC)[C@@H]1O | 0.03 µg/mL (≈ 0.0308 µM) | 1 µg/mL (≈ 1.03 µM) | 0.125 µg/mL (≈ 0.128 µM) | 0.06 µg/mL (≈ 0.0616 µM) | 0.03 µg/mL (≈ 0.0308 µM) | 0.125 µg/mL (≈ 0.128 µM) | 1 µg/mL (≈ 1.03 µM) | Active | 1 µg/mL (≈ 1.03 µM) | 0.06 µg/mL (≈ 0.0616 µM) | 0.125 µg/mL (≈ 0.128 µM) | 0.03 µg/mL (≈ 0.0308 µM) | 0.06 µg/mL (≈ 0.0616 µM) | 0.125 µg/mL (≈ 0.128 µM) | 2 µg/mL (≈ 2.05 µM) | 0.125 µg/mL (≈ 0.128 µM) | 2 µg/mL (≈ 2.05 µM) | 0.5 µg/mL (≈ 0.513 µM) | 0.06 µg/mL (≈ 0.0616 µM) | –
C=CCN(C)[C@H]1C[C@@H](C)O[C@@H](O[C@@H]2[C@@H](C)[C@H](OC(=O)Cc3ccccn3)[C@@H](C)C(=O)O[C@H](CC)[C@@]3(C)OC(=O)N(CCCCn4cnc5ncccc54)[C@@H]3[C@@H](C)C(=O)[C@H](C)C[C@@]2(C)OC)[C@@H]1O | 0.06 µg/mL (≈ 0.0643 µM) | 0.5 µg/mL (≈ 0.536 µM) | 0.125 µg/mL (≈ 0.134 µM) | 0.125 µg/mL (≈ 0.134 µM) | 0.06 µg/mL (≈ 0.0643 µM) | 0.25 µg/mL (≈ 0.268 µM) | 0.5 µg/mL (≈ 0.536 µM) | Active | 1 µg/mL (≈ 1.07 µM) | 0.06 µg/mL (≈ 0.0643 µM) | 0.5 µg/mL (≈ 0.536 µM) | 0.06 µg/mL (≈ 0.0643 µM) | 0.25 µg/mL (≈ 0.268 µM) | 0.125 µg/mL (≈ 0.134 µM) | 0.5 µg/mL (≈ 0.536 µM) | 0.125 µg/mL (≈ 0.134 µM) | 0.06 µg/mL (≈ 0.0643 µM) | 0.5 µg/mL (≈ 0.536 µM) | 0.5 µg/mL (≈ 0.536 µM) | < 0.06 µg/mL
C=CCN(C)[C@H]1C[C@@H](C)O[C@@H](O[C@@H]2[C@@H](C)[C@H](OC(=O)Cc3ccccn3)[C@@H](C)C(=O)O[C@H](CC)[C@@]3(C)OC(=O)N(CCCCn4cnc(-c5ccco5)c4)[C@@H]3[C@@H](C)C(=O)[C@H](C)C[C@@]2(C)OC)[C@@H]1O | 0.25 µg/mL (≈ 0.264 µM) | 2 µg/mL (≈ 2.11 µM) | 0.5 µg/mL (≈ 0.527 µM) | 0.25 µg/mL (≈ 0.264 µM) | 0.03 µg/mL (≈ 0.0316 µM) | 1 µg/mL (≈ 1.05 µM) | 2 µg/mL (≈ 2.11 µM) | Active | 4 µg/mL (≈ 4.22 µM) | 0.25 µg/mL (≈ 0.264 µM) | 0.125 µg/mL (≈ 0.132 µM) | 0.06 µg/mL (≈ 0.0633 µM) | 0.25 µg/mL (≈ 0.264 µM) | 0.5 µg/mL (≈ 0.527 µM) | 2 µg/mL (≈ 2.11 µM) | 1 µg/mL (≈ 1.05 µM) | 0.03 µg/mL (≈ 0.0316 µM) | 2 µg/mL (≈ 2.11 µM) | 0.125 µg/mL (≈ 0.132 µM) | < 0.06 µg/mL

From ChEMBL document CHEMBL1933046, “Synthesis and antibacterial activity of a novel series of acylides active against community acquired respiratory pathogens” (2012)
